Measurements: patent US20080045504A1, “Benzonitrile Derivatives to Treat Musculoskeletal Frailty” (PFIZER PRODUCTS INC., priority 2004, published 2008)
pIC50: −log10 of the molar value.

Columns and labels:
[1] = molecular target: T1, recombinant human androgen receptor (hAR) (Homo sapiens, UniProt P10275); experiment: Human androgen receptor binding analysis (3H-DHT competitive binding)
T1 construct: made in house; host or cells: baculovirus/Sf9 insect cells (crude extract)
T1 sequence (P10275 1-920): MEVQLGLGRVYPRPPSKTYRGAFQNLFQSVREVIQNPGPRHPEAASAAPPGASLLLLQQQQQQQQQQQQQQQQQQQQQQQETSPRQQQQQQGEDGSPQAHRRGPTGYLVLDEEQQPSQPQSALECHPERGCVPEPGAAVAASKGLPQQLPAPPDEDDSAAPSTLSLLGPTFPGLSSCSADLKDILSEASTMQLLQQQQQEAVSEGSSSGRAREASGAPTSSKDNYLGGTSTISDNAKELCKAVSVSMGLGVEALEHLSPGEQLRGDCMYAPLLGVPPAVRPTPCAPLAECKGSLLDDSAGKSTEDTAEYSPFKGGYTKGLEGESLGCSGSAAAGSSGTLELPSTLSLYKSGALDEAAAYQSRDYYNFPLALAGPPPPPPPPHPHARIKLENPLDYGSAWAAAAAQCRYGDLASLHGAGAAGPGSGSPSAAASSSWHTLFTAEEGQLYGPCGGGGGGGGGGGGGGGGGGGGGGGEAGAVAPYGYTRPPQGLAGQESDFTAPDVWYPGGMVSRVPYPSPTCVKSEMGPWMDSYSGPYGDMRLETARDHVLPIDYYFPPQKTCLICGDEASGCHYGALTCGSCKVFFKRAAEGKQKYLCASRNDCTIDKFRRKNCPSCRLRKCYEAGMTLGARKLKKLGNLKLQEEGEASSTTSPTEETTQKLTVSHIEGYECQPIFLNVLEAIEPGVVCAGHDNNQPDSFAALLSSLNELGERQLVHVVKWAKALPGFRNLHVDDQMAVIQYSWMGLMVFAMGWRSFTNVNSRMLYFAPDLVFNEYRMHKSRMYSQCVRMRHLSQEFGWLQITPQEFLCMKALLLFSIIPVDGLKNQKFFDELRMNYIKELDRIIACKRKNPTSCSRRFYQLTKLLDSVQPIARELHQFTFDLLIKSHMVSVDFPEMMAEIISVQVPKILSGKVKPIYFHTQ
Protocol: The following is a brief description of the assay that determines the affinity of a compound for the recombinant human androgen receptor (hAR). Competitive binding analysis is performed on baculovirus/Sf9 generated hAR extracts in the presence or absence of differing concentrations of drug and a fixed concentration of ^3H-dihydrotestosterone (^3H-DHT) as tracer. This binding assay method is a modification of a protocol previously described (Chang, et. al. J. Steroid Biochem. 20(1):11-17 1984). Briefly, progressively decreasing concentrations of compounds are incubated in the presence of hAR extract (Chang et al. P.N.A.S. Vol. 89, pp. 5546-5950, 1992), hydroxylapatite and 1 nM ^3H-DHT for one hour at 4° C. Subsequently, the binding reactions are washed three times to completely remove excess unbound ^3H-DHT. hAR bound ^3H-DHT levels are determined in the presence of compounds (=competitive binding) and compared to levels bound when no competitor is present (=maximum binding). Compound binding affinity to the hAR is expressed as the concentration of compound at which one half of the maximum binding is inhibited (the IC50).

[2] = system: orchiectomized (ORX) immature male rat; experiment: Orchiectomized immature rat assay (levator ani and ventral prostate weights); type: in vivo, Sprague Dawley rat; details: 4 days, TP 10 mg/kg = 100%, ORX control = 0%; for % TP Control LA: levator ani weight; for % TP Control VP: ventral prostate weight
Protocol: All animal studies were performed in accordance with the Guide for Care and Use of Laboratory Animals (National Research Council, 1996). Twenty-one day old male Sprague Dawley rats were acquired from Taconic, Inc, Germantown, N.Y. Rats were housed five per cage at standard vivarium conditions ([…], 12-h light/dark cycle), with normal chow diet and tap water ad libitum. At 25 days of age, the rats underwent bilateral orchiectomy surgery (ORX) after sedation with 3-5% Isoflurane. Following the surgery, the animals were treated immediately by daily subcutaneous (s.c.) injection with vehicle (sesame oil), testosterone propionate (TP, 10 mg/kg) and test compounds. The dosage of test compound administered is in mg/kg. At the end of the 4 days of administrations, the animals were sacrificed in a carbon dioxide chamber, the ventral prostate (VP) and levator ani muscle complex (LA) were removed and weighed. The increase in the weights of VP or LA by TP was expressed as 100%, and the ORX control as baseline, 0%; the response of the test compounds was calculated as the percentage increase compared to TP.

SMILES | pIC50 [1] | % TP Control LA ([2]; 3 mg/kg s.c.) [%] | % TP Control LA ([2]; 10 mg/kg s.c.) [%] | % TP Control LA ([2]; 30 mg/kg s.c.) [%] | % TP Control VP ([2]; 3 mg/kg s.c.) [%] | % TP Control VP ([2]; 10 mg/kg s.c.) [%] | % TP Control VP ([2]; 30 mg/kg s.c.) [%]
CC[C@@H](C)N(C)c1ccc(C#N)c(C(F)(F)F)c1 [Example 7, 4-((R)-sec-Butyl-methyl-amino)-2-trifluoromethyl-benzonitrile] | 8.96 | 40 | 65 | 89 | 23 | 24 | 39
CCN(CC)c1ccc(C#N)c(C(F)(F)F)c1 [Example 20, 4-Diethylamino-2-trifluoromethyl-benzonitrile] | 8.58 |  |  |  |  |  | 
CCCCCN(CCC)c1ccc(C#N)c(C(F)(F)F)c1 [Example 41, 4-(Pentyl-propyl-amino)-2-trifluoromethyl-benzonitrile] | 8.03 |  |  |  |  |  | 
